Data set [1] relates to immobilized human corneal endothelial cells (iFECD). Kind of data set: Mitochondrial membrane potential, JC-1 stain, confocal microscope. The data set is classed as cell-based. The conditions noted are these: CCCP 50 μmol/L, 9 hours, uncoupling agent. The method, then:
(§1) The medium was removed from a culture dish in which immobilized human corneal endothelial cells were being cultured, and the cells were supplemented with 1×PBS (−) that was preheated to 37° C., and were washed. This was repeated twice. The cells were supplemented again with 1×PBS (−) and incubated for 5 minutes at 37° C. (5% CO2). After removing the PBS (−), the cells were supplemented with 0.05% Trypsin-EDTA (Nacalai Tesque, 35554-64) and incubated for 5 minutes at 37° C. (5% CO2). The cells were then suspended in a medium, and collected by centrifugation at 1500 rpm for 3 minutes. DMEM (Nacalai Tesque, 08456-94)+10% FBS (Biowest, S1820-500)+1% P/S (Nacalai Tesque, 26252-94) was used as the medium.
Immobilized human corneal endothelial cells (lot: iFECD3-5) were seeded on a 48-well plate at a ratio of 4×10^4 cells per well and cultured for 48 hours at 37° C. (5% CO2). DMEM+10% FBS+1% P/S was used as the medium.
After 48 hours, the medium was removed. Each inhibitor was added to culture the cells for 24 hours (pretreatment). DMSO (Dimethyl Sulfoxide Sterile-filtered) (Nacalai Tesque, 13408-64) was added to the control group and the TGF-β2 group. The CCCP group was supplemented with CCCP (abcam, ab141229), so that the final concentration was 50 μmol/L, and cultured for 9 hours. […]
Mitochondrial membrane potential was analyzed by the following procedure with a JC-1 stain. […]

For data set [2] the test system is unchanged. Kind of data set: Mitochondrial membrane potential decreased cells, JC-1 flow cytometry. The data set is classed as cell-based. Particulars: TGF-β2 10 ng/ml 30 hours, SB203580 10 μM, PH-797804 1 μM, VX-702 3 μM, compared to the TGF-β2 group or SB431542 10 μM group. The method, then: as §1, with “C. (5% C02). After removing” for “C. (5% CO2). After removing”
(§2) Immobilized human corneal endothelial cells (lot: iFECD3-5) were seeded on a 12-well plate at a ratio of 8×10^4 cells per well and cultured for 48 hours at 37° C. (5% CO2). DMEM+10% FBS+1% P/S was used as the medium.
After 48 hours, the medium was removed. Each inhibitor was added to culture the cells for 24 hours (pretreatment). DMSO (Dimethyl Sulfoxide Sterile-filtered) (Nacalai Tesque, 13408-64) was added to the control group and the TGF-β2 group. DMEM+2% FBS+1% P/S was used as the medium. […]
The samples prepared above were analyzed using BD Accuri C6 Flow Cytometer (BD).
In general terms: Flow cytometry measures light scatter and fluorescence of single cells or particles in a stream.

For data set [3], the system named is Human corneal endothelial cells. Kind of data set: Cell count 24 hours after thawing cryopreserved cells, CellTiter-Glo. In kind it is cell-based. Particulars: SB203580 10 μM, 24 hours after seeding thawed cells. On the procedure: After thawing the cryopreserved cells by adding only DMSO, 10000 cells were seeded in a 96-well plate that was coated with laminin E8. SB203580 (Cayman, catalog number: 13067) was added so that the final concentration was 10 μM upon seeding. DMSO was added to the group to which SB203580 was not added. After 24 hours from seeding, CellTiter-Glo Luminescent Cell Viability Assay (Promega catalog number: G7570) was performed to measure luminescence.

For data set [4] the test system is unchanged. Kind of data set: Cryopreservation of corneal endothelial cells, trypan blue dye exclusion test. The conditions noted are these: SB203580 10 μM in KM BANKER, 3 days at −80° C. The data set is classed as cell-based. The method, then:
Human corneal endothelial cells cultured in an MSC-CM (MSC cultured medium) were used in the test. The medium was removed from a culture dish in which human corneal endothelial cells were being cultured, and the cells were supplemented with PBS (−) that was preheated to 37° C., and were washed. This was repeated twice. After removing the PBS (−), the cells were supplemented with TrypLE Select (×10) (GIBCO, A12177-01) and incubated for 10 minutes at 37° C. (5% CO2). SB203580 was added to KM BANKER, so that the final concentration was 10 μM. The control group was cryopreserved by supplementing a reagent solvent, dimethyl sulfoxide (DMSO) (Dimethyl Sulfoxide Sterile-filtered; Nacalai Tesque, 13408-64). After 3 days of storage at −80° C., the tube was thawed by being immersed in a 37° C. water bath. After thawing, the sample was washed in a medium. Live and dead cell counts were measured by trypan blue dye exclusion test.

The conditions of data set [5]: cited from earlier work.
The test system of the next data set is smad2 and smad3. The experiment in a line: Western blot of phospho-smad2 and smad3 after TGF-β2 stimulation. In kind it is cell-based, human. Particulars: iFECD, TGF-β2 10 ng/ml 24 hours; SB431542 10 μM, SB203580 10 μM, PH-797804 1 μM, VX-702 3 μM. An excerpt: The same procedure as Example 4 was used. However, rabbit anti-Phospho-Smad2 antibody: 1000-fold dilution, rabbit anti-Phospho-Smad3 antibody: 1000-fold dilution, and mouse anti-GAPDH antibody: 3000-fold dilution were used as the primary antibodies.
A general note: In western blotting, separated proteins are transferred to a membrane and probed.

Data set [6] has as its system immobilized human corneal endothelial cells (iFECD). Kind of data set: Cell damage by TGF-β2 stimulation, phase differential microscope. Particulars: 24 h pretreatment, TGF-β2 10 ng/ml 27 hours, SB203580 10 μM, PH-797804 1 μM, VX-702 3 μM, SB431542 10 μM. In kind it is cell-based. On the procedure:
as §1, with “P/S (penicillin-streptomycin mixture)” for “P/S”
as §2
After 48 hours, the medium was removed. Each inhibitor was added to culture the cells for 24 hours. DMSO (Dimethyl Sulfoxide Sterile-filtered) (Nacalai Tesque, 13408-64) was added to the control group and the TGF-52 group. DMEM+2% FBS+1% P/S was used as the medium.
After 24 hours, the medium was removed. A medium containing 10 ng/ml of Recombinant Human TGF-β2 (R&D systems, RND302-B2-002) and each inhibitor was added to culture the cells for 27 hours. […]

`N#CC(C#N)=NNc1cccc(Cl)c1` [CCCP]: in data set [1], the “mitochondrial membrane potential (JC-1 red fluorescence)” value was “not observed”.

For `CNC(=O)c1ccc(C)c(-n2c(C)cc(OCc3ccc(F)cc3F)c(Br)c2=O)c1` [PH-797804, 3-[3-bromo-4-[(2,4-difluorophenyl)methoxy]-6-methyl-2-oxopyridin-1-yl]-N,4-dimethylbenzamide], in data set [2], the “percentage of mitochondrial membrane potential decreased cells” value is listed as “comparable to or lower than the SB431542 added group”.

Regarding `C[S+]([O-])c1ccc(-c2nc(-c3ccncc3)c(-c3ccc(F)cc3)[nH]2)cc1` (stereo not drawn) [SB203580, 4-(4-fluorophenyl)-2-(4-methylsulfinylphenyl)-5-(4-pyridyl)-1H-imidazole], in data set [3], the “cell count compared to the DMSO-added group” value is “about 1.3 fold”. Moreover, the “percentage of mitochondrial membrane potential decreased cells” value in data set [2] was “comparable to or lower than the SB431542 added group”. Moreover, the “cell viability immediately after thawing compared to DMSO” value in data set [4] is “slightly higher”. For the same compound, the solubility into methanol result in data set [5] (methanol) is reported as “soluble”. For the same compound, the solubility into water result in data set [5] (water) was “difficult to dissolve”.

For `NC(=O)c1ccc(-c2nc(-c3ccc4c(c3)OCO4)c(-c3ccccn3)[nH]2)cc1` [SB431542], the “smad2 and smad3 (downstream of TGF-β signaling pathway) in western blot” value in the data set on smad2 and smad3 is reported as “not found”. For the same compound, the “damage to corneal endothelial cells due to TGF-β2 stimulation” value in data set [6] was “suppressed”.

Source of the values: patent publication US10980787B2, “Drug for treating or preventing disorder caused by TGF-B signals, and application thereof” (THE DOSHISHA, priority 2015, dated 2021).
